Patent US20230183219A1, “CONDENSED SUBSTITUTED HYDROPYRROLES AS ANTAGONISTS OF THE MUSCARINIC ACETYLCHOLINE RECEPTOR M4” (Vanderbilt University, priority 2020, published 2023)
Read-outs that look alike come from different tables or passages of the source.

Biological target: T1, Human M4 (Homo sapiens, UniProt P08173)
T1 construct: Human or rat M4 cDNA, along with the chimeric G protein Gqi5, were transfected into Chinese hamster ovary (CHO-K1) cells; expressed in transfected cells; host or cells: CHO-K1 (Chinese hamster ovary, ATCC), stably co-expressing Gqi5
T1 sequence (P08173 1-479): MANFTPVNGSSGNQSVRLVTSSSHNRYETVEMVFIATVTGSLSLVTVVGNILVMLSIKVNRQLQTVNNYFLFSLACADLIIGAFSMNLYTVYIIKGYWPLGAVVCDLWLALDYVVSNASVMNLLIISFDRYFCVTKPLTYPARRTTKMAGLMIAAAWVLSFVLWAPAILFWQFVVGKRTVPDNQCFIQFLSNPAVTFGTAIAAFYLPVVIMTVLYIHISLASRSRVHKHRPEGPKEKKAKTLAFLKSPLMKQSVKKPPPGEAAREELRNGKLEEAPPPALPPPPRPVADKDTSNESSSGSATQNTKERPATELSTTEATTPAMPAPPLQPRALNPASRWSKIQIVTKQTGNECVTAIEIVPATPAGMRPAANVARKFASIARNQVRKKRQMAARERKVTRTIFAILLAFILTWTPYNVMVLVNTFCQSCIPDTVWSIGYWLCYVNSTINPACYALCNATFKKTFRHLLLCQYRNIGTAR
Assay: mAChR M4 cell-based functional assay (calcium flux, decrease of EC80 acetylcholine response)
Settings: for remaining activity at 30 µM: read-out: Human M4 Emin; for IC50: M4/Gqi5/CHO-K1 cells, decrease of response to EC80 acetylcholine
Summary of the method: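 CHO-K1 cells stably co-expressing M4 and chimeric Gqi5, loaded with Fluo-4 AM; calcium flux read on FDSS. Compound added at 2 s, EC20 acetylcholine at 143 s, EC80 acetylcholine at 268 s. IC50 from concentration-dependent decrease of the EC80 response, four-parameter logistic fit; 10-point 1:3 titrations.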

| remaining activity at 30 µM (% ACh maximum at 30 μM) [%] | IC50 [nM] | Compound | remaining activity at 30 µM [%] |
| --- | --- | --- | --- |
| 2 | 9.2 | F[C@@H]1CCN(c2cc(C(F)(F)F)c(N[C@H]3C[C@@H]4CN(CC5CCOCC5)C[C@@H]4C3)nn2)C1 [Example 140, (3aR,5s,6aS)-N-(6-((R)-3-fluoropyrrolidin-1-yl)-4-(trifluoromethyl)pyridazin-3-yl)-2-((tetrahydro-2H-pyran-4-yl)methyl)octahydro-cyclopenta[c]pyrrol-5-amine] | – |
| 3 | 94.3 | COc1ccc(F)cc1-c1cc(C(F)(F)F)c(N[C@H]2C[C@@H]3CN(CC4CCOCC4)C[C@@H]3C2)nn1 [Example 49, (3aR,5s,6aS)-N-(6-(5-fluoro-2-methoxyphenyl)-4-(trifluoromethyl)pyridazin-3-yl)-2-((tetrahydro-2H-pyran-4-yl)methyl)octahydro-cyclopenta[c]pyrrol-5-amine] | – |
| 4 | 637 | Cn1ccc2ccc(-c3cc(C(F)(F)F)c(N[C@H]4C[C@@H]5CN(CC6CCOCC6)C[C@@H]5C4)nn3)cc21 [Example 90, (3aR,5s,6aS)-N-(6-(1-methyl-1H-indol-6-yl)-4-(trifluoromethyl)pyridazin-3-yl)-2-((tetrahydro-2H-pyran-4-yl)methyl)octahydro-cyclopenta[c]pyrrol-5-amine] | – |
| 2 | 0.4 | Cc1ccc(F)cc1-c1cc(C#N)c(N[C@H]2C[C@@H]3CN(C[C@H]4COCCO4)C[C@@H]3C2)nn1 [Example 149, 3-(((3aR,5s,6aS)-2-(((S)-1,4-dioxan-2-yl)methyl)octahydro-cyclopenta[c]pyrrol-5-yl)amino)-6-(5-fluoro-2-methylphenyl)pyridazine-4-carbonitrile] | – |
| 6 | 147 | Cn1cc2cc(-c3cc(C(F)(F)F)c(N[C@H]4C[C@@H]5CN(C[C@@H]6COCCO6)C[C@@H]5C4)nn3)ccc2n1 [Example 35, (3aR,5s,6aS)-2-(((R)-1,4-dioxan-2-yl)methyl)-N-(6-(2-methyl-2H-indazol-5-yl)-4-(trifluoromethyl)pyridazin-3-yl)octahydro-cyclopenta[c]pyrrol-5-amine] | – |
| 4 | 634 | Fc1ccc(C(F)(F)F)cc1-c1cc(C(F)(F)F)c(N[C@H]2C[C@@H]3CN(CC4CCOCC4)C[C@@H]3C2)nn1 [Example 89, (3aR,5s,6aS)-N-(6-(2-fluoro-5-(trifluoromethyl)phenyl)-4-(trifluoromethyl)pyridazin-3-yl)-2-((tetrahydro-2H-pyran-4-yl)methyl)octahydro-cyclopenta[c]pyrrol-5-amine] | – |
| 3 | 233 | COc1ccc(-c2cc(C(F)(F)F)c(N[C@H]3C[C@@H]4CN(CC5CCOCC5)C[C@@H]4C3)nn2)c(F)c1 [Example 61, (3aR,5s,6aS)-N-(6-(2-fluoro-4-methoxyphenyl)-4-(trifluoromethyl)pyridazin-3-yl)-2-((tetrahydro-2H-pyran-4-yl)methyl)octahydro-cyclopenta[c]pyrrol-5-amine] | – |
| 2 | 4.5 | Cc1ccc(F)cc1-c1cc(C(F)(F)F)c(N[C@H]2C[C@@H]3CN(CC4COCCO4)C[C@@H]3C2)nn1 (stereo partly drawn) [Example 19, (3aR,5s,6aS)-2-((1,4-dioxan-2-yl)methyl)-N-(6-(5-fluoro-2-methylphenyl)-4-(trifluoromethyl)pyridazin-3-yl)octahydro-cyclopenta[c]pyrrol-5-amine] | – |
| 4 | 401 | N#Cc1c(F)ccc(-c2cc(C(F)(F)F)c(N[C@H]3C[C@@H]4CN(CC5CCOCC5)C[C@@H]4C3)nn2)c1F [Example 55, 2,6-difluoro-3-(6-(((3aR,5s,6aS)-2-((tetrahydro-2H-pyran-4-yl)methyl)octahydro-cyclopenta[c]pyrrol-5-yl)amino)-5-(trifluoro-methyl)pyridazin-3-yl)benzonitrile] | – |
| 3 | 23.7 | Cc1ccc(F)cc1-c1cc(C(F)(F)F)c(N[C@H]2C[C@@H]3CN(CC4(F)CCOCC4)C[C@@H]3C2)nn1 [Example 23, (3aR,5s,6aS)-N-(6-(5-fluoro-2-methylphenyl)-4-(trifluoromethyl)pyridazin-3-yl)-2-((4-fluorotetrahydro-2H-pyran-4-yl)methyl)octahydro-cyclopenta[c]pyrrol-5-amine] | – |
| 11 | 9.7 | Cn1cc2cc(-c3cc(C#N)c(N[C@H]4C[C@@H]5CN(CC6CCOCC6)C[C@@H]5C4)nn3)ccc2n1 [Example 153, 6-(2-methyl-2H-indazol-5-yl)-3-(((3aR,5s,6aS)-2-((tetrahydro-2H-pyran-4-yl)methyl)octahydro-cyclopenta[c]pyrrol-5-yl)amino)pyridazine-4-carbonitrile] | – |
| 2 | 14.3 | C[C@H]1CCCN(c2cc(C(F)(F)F)c(N[C@H]3C[C@@H]4CN(CC5CCOCC5)C[C@@H]4C3)nn2)C1 [Example 137, (3aR,5s,6aS)-N-(6-((S)-3-methylpiperidin-1-yl)-4-(trifluoro-methyl)pyridazin-3-yl)-2-((tetrahydro-2H-pyran-4-yl)methyl)octahydro-cyclopenta[c]pyrrol-5-amine] | – |
| 3 | 144 | [2H]C([2H])(C1CCOCC1)N1C[C@H]2C[C@H](Nc3nnc(-c4cc(F)ccc4F)cc3C(F)(F)F)C[C@H]2C1 [Example 50, (3aR,5s,6aS)-N-(6-(2,5-difluorophenyl)-4-(trifluoromethyl)pyridazin-3-yl)-2-((tetrahydro-2H-pyran-4-yl)methyl-d2)octahydro-cyclopenta[c]pyrrol-5-amine] | – |
| 3 | 172 | Cc1cc(F)c(F)c(-c2cc(C(F)(F)F)c(N[C@H]3C[C@@H]4CN(CC5CCOCC5)C[C@@H]4C3)nn2)c1 [Example 93, (3aR,5s,6aS)-N-(6-(2,3-difluoro-5-methylphenyl)-4-(trifluoromethyl)pyridazin-3-yl)-2-((tetrahydro-2H-pyran-4-yl)methyl)octahydro-cyclopenta[c]pyrrol-5-amine] | – |
| 3 | 315 | Cc1ccc(C(F)(F)F)cc1-c1cc(C(F)(F)F)c(N[C@H]2C[C@@H]3CN(CC4CCOCC4)C[C@@H]3C2)nn1 [Example 53, (3aR,5s,6aS)-N-(6-(2-methyl-5-(trifluoromethyl)phenyl)-4-(trifluoromethyl)pyridazin-3-yl)-2-((tetrahydro-2H-pyran-4-yl)methyl)octahydro-cyclopenta[c]pyrrol-5-amine] | – |
| 3 | 13.2 | [2H][C@@]1(Nc2nnc(-c3ccc4nn(C)cc4c3)cc2C(F)(F)F)C[C@H]2CN(CC3CCOCC3)C[C@H]2C1 [Example 128, (3aR,5s,6aS)-N-(6-(2-methyl-2H-indazol-5-yl)-4-(trifluoro-methyl)pyridazin-3-yl)-2-((tetrahydro-2H-pyran-4-yl)methyl)octahydro-cyclopenta[c]pyrrol-5-d-5-amine] | – |
| 3 | 26.4 | [2H]C([2H])(C1CCOCC1)N1C[C@H]2C[C@H](Nc3nnc(-c4ccccc4OC)cc3C(F)(F)F)C[C@H]2C1 [Example 107, (3aR,5s,6aS)-N-(6-(2-methoxyphenyl)-4-(trifluoromethyl)pyridazin-3-yl)-2-((tetrahydro-2H-pyran-4-yl)methyl-d2)octahydro-cyclopenta[c]pyrrol-5-amine] | – |
| 3 | 13.6 | FC(F)(F)c1ccccc1-c1cc(C(F)(F)F)c(N[C@H]2C[C@@H]3CN(CC4CCOCC4)C[C@@H]3C2)nn1 [Example 41, (3aR,5s,6aS)-2-((tetrahydro-2H-pyran-4-yl)methyl)-N-(4-(trifluoromethyl)-6-(2-(trifluoromethyl)phenyl)pyridazin-3-yl)octahydro-cyclopenta[c]pyrrol-5-amine] | – |
| 4 | 622 | [2H][C@@]1(Oc2nnc(-c3cc(F)ccc3C)cc2C(F)(F)F)C[C@H]2CN(CC3CCOCC3)C[C@H]2C1 [Example 135, (3aR,5s,6aS)-5-((6-(5-fluoro-2-methylphenyl)-4-(trifluoro-methyl)pyridazin-3-yl)oxy)-2-((tetrahydro-2H-pyran-4-yl)methyl)octahydro-cyclopenta[c]pyrrole-5-d] | – |
| 4 | 99.7 | Cn1cc2cc(-c3cc(C(F)(F)F)c(N[C@H]4C[C@@H]5CN(CC6CCCOC6)C[C@@H]5C4)nn3)ccc2n1 (single isomer, unassigned) [Example 36] | – |

| Compound | remaining activity at 30 µM (% ACh maximum at 30 μM) [%] | IC50 [nM] | remaining activity at 30 µM [%] |
| --- | --- | --- | --- |
| Cn1cc2cc(-c3cnc(N[C@H]4C[C@@H]5CN(CC6CCOCC6)C[C@@H]5C4)nc3)ccc2n1 [Example 12, (3aR,5s,6aS)-N-(5-(2-methyl-2H-indazol-5-yl)pyrimidin-2-yl)-2-((tetrahydro-2H-pyran-4-yl)methyl)octahydro-cyclopenta[c]pyrrol-5-amine] | – | 2750 | 10 |
